How the values were obtained:
[1] = system: common (oilseed) sunflower; experiment: Test C pre-/postemergence test; format: in vivo, Helianthus annuus
In short: (§1)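 Compounds in a non-phytotoxic solvent with surfactant applied preemergence to seeded pots and, at the same time, postemergence to plants 2–18 cm tall (1- to 4-leaf stage). Paddy tests: pots flooded to 3 cm, compound applied into the water, depth held throughout.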

morningglory = experiment: Test A pre-/postemergence greenhouse test; format: in vivo, Ipomoea spp.; settings: for Morningglory plant response rating: 0 to 100 scale
In short: (§2)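 Herbicidal effect is a visual injury score given about ten days post-treatment by comparison with untreated controls. Preemergence plots received a directed spray onto sown loam–sand soil; postemergence plants, at the one- to two-leaf stage and 2–10 cm tall, were sprayed at the same time.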

crabgrass = experiment: Test C pre-/postemergence test; format: in vivo, Digitaria sanguinalis
In short: as §1

eastern black nightshade = experiment: Test C pre-/postemergence test; format: in vivo, Solanum ptycanthum
Source text: Seeds of plant species selected from blackgrass (Alopecurus myosuroides), downy brome (Bromus tectorum), green foxtail (Setaria viridis), Italian ryegrass (Lolium multiflorum), wheat (Triticum aestivum), wild oat (Avena fatua), catchweed bedstraw (Galium aparine), Russian thistle (Salsola kali), […] (Cynodon dactylon), Surinam grass (Brachiaria decumbens), cocklebur (Xanthium strumarium), corn (Zea mays), crabgrass (Digitaria sanguinalis), woolly cupgrass (Eriochloa villosa), giant foxtail (Setaria faberii), Goosegrass (Eleusin indica), johnsongrass (Sorghum halepense), kochia (Kochia scoparia), lambsquarters (Chenopodium album), morningglory (Ipomoea coccinea), eastern black nightshade (Solanum ptycanthum), yellow nutsedge (Cyperus esculentus), pigweed (Amaranthus retroflexus), common ragweed (Ambrosia elation), soybean (Glycine max), common (oilseed) sunflower (Helianthus annuus), and velvetleaf (Abutilon theophrasti) were planted and treated preemergence with test chemicals formulated in a non-phytotoxic solvent mixture which included a surfactant. At the same time, plants selected from these crop and weed species and also winter barley (Hordeum vulgare), canarygrass (Phalaris minor), and chickweed (Stellaria media) were treated with postemergence applications of some of the test chemicals formulated in the same manner. Plants ranged in height from 2 to 18 cm (1- to 4-leaf stage) for postemergence treatments. […] At time of treatment, test pots were flooded to 3 cm above the soil surface, treated by application of test compounds directly to the paddy water, and then maintained at that water depth for the duration of the test. […] A dash (-) response means no test result.

bermudagrass = experiment: Test C pre-/postemergence test; format: in vivo, Cynodon dactylon
In short: as §1

corn = experiment: Test A pre-/postemergence greenhouse test; format: in vivo, Zea mays; settings: for Corn plant response rating: 0 to 100 scale
In short: as §2

barnyardgrass = experiment: Test A pre-/postemergence greenhouse test; format: in vivo, Echinochloa crus-galli; settings: for Barnyardgrass plant response rating: 0 to 100 scale
In short: as §2

umbrella sedge = experiment: Test C flooded paddy test; format: in vivo, Cyperus difformis; settings: Flood
In short: (§3)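 Ratings were visual and made relative to untreated controls after 13 to 15 greenhouse days.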

redroot pigweed = experiment: Test A pre-/postemergence greenhouse test; format: in vivo, Amaranthus retroflexus; settings: for Pigweed plant response rating: 0 to 100 scale
In short: as §2

Surinam grass = experiment: Test C pre-/postemergence test; format: in vivo, Brachiaria decumbens
In short: as §1

rice = experiment: Test C flooded paddy test; format: in vivo, Oryza sativa; settings: Flood
In short: as §3

wheat = experiment: Test A pre-/postemergence greenhouse test; format: in vivo, Triticum aestivum; settings: for Wheat plant response rating: 0 to 100 scale
In short: as §2

pigweed = experiment: Test C pre-/postemergence test; format: in vivo, Amaranthus retroflexus
In short: as §1

Goosegrass = experiment: Test C pre-/postemergence test; format: in vivo, Eleusin indica
In short: as §1

lambsquarters = experiment: Test C pre-/postemergence test; format: in vivo, Chenopodium album
In short: as §1

giant foxtail = experiment: Test A pre-/postemergence greenhouse test; format: in vivo, Setaria faberi; settings: for Foxtail, Giant plant response rating: 0 to 100 scale
In short: as §2

[2] = 62 g ai/ha, Preemergence, scale 0 to 100
[3] = 125 g ai/ha, preemergence, scale 0 (no effect) to 100 (complete control)
[4] = Preemergence, 31 g ai/ha, scale 0 to 100 (0 no effect, 100 complete control)
[5] = preemergence, 250 g ai/ha, scale 0 (no effect) to 100 (complete control)
[6] = Postemergence, 125 g ai/ha, 0 is no effect, 100 is complete control
[7] = Postemergence, 500 g ai/ha, 0 is no effect, 100 is complete control
[8] = Preemergence, 125 g ai/ha, 0 no effect, 100 complete control
[9] = Preemergence, 500 g ai/ha, 0 to 100 scale where 0 is no effect and 100 is complete control
[10] = 31 g ai/ha, scale 0 to 100 (0 no effect, 100 complete control)
[11] = 62 g ai/ha, scale 0 to 100, 0 no effect, 100 complete control, 13 to 15 days
[12] = 125 g ai/ha, scale 0 to 100, 0 no effect, 100 complete control, 13 to 15 days
[13] = 250 g ai/ha, scale 0 to 100, 0 no effect, 100 complete control, 13 to 15 days

Cn1nc(C(F)(F)F)c(C[S+]([O-])c2cc(Cl)cc[n+]2[O-])c1Cl (racemic) [Compound 39]
65: Plant response rating, Rice (rice; [13])
60: Morningglory plant response rating (morningglory; [6]) | Pigweed plant response rating (redroot pigweed; [6]) | Plant response rating, Surinam Grass (Surinam grass; [4]) | Wheat plant response rating (wheat; [6]) | Wheat plant response rating (wheat; [7])
0: Sunflower plant response rating [1, 2] | Sunflower plant response rating [1, 3] | Plant response rating, Sunflower [1, 4] | Plant response rating, Rice (rice; [10])
85: Plant response rating, Bermudagrass (bermudagrass; [4]) | Plant response rating, Sedge, Umbrella (umbrella sedge; [11])
98: Nightshade plant response rating (eastern black nightshade; [5]) | Plant response rating, Goosegrass (Goosegrass; [4])
80: Morningglory plant response rating (morningglory; [8]) | Plant response rating, Crabgrass, Large (crabgrass; [4]) | Surinam Grass plant response rating (Surinam grass; [2]) | Lambsquarters plant response rating (lambsquarters; [2]) | Foxtail, Giant plant response rating (giant foxtail; [6])
50: Corn plant response rating (corn; [7]) | Plant response rating, Corn (corn; [9]) | Wheat plant response rating (wheat; [8])
40: Plant response rating, Rice (rice; [12])
100: Morningglory plant response rating (morningglory; [7]) | Plant response rating, Morningglory (morningglory; [9]) | Crabgrass, Large plant response rating (crabgrass; [3]) | Crabgrass, Large plant response rating (crabgrass; [5]) | Bermudagrass plant response rating (bermudagrass; 62 g ai/ha, Preemergence, scale 0 to 100 (0 no effect, 100 complete control)) | Bermudagrass plant response rating (bermudagrass; [3]) | Bermudagrass plant response rating (bermudagrass; [5]) | Plant response rating, Barnyardgrass (barnyardgrass; [9]) | Pigweed plant response rating (redroot pigweed; [7]) | Pigweed plant response rating (redroot pigweed; [8]) | Plant response rating, Pigweed (redroot pigweed; [9]) | Pigweed plant response rating (pigweed; [2]) | Pigweed plant response rating (pigweed; [3]) | Plant response rating, Pigweed (pigweed; [4]) | Pigweed plant response rating (pigweed; [5]) | Goosegrass plant response rating (Goosegrass; [2]) | Goosegrass plant response rating (Goosegrass; [3]) | Goosegrass plant response rating (Goosegrass; [5]) | Lambsquarters plant response rating (lambsquarters; [3]) | Lambsquarters plant response rating (lambsquarters; [5]) | Foxtail, Giant plant response rating (giant foxtail; [8]) | Plant response rating, Foxtail, Giant (giant foxtail; [9])
90: Crabgrass, Large plant response rating (crabgrass; [2]) | Nightshade plant response rating (eastern black nightshade; [2]) | Barnyardgrass plant response rating (barnyardgrass; [7]) | Barnyardgrass plant response rating (barnyardgrass; [8]) | Surinam Grass plant response rating (Surinam grass; [3]) | Surinam Grass plant response rating (Surinam grass; [5]) | Foxtail, Giant plant response rating (giant foxtail; [7])
95: Nightshade plant response rating (eastern black nightshade; [3]) | Plant response rating, Sedge, Umbrella (umbrella sedge; [12]) | Plant response rating, Sedge, Umbrella (umbrella sedge; [13])
75: Sunflower plant response rating [1, 5] | Plant response rating, Nightshade (eastern black nightshade; [4]) | Plant response rating, Lambsquarters (lambsquarters; [4])
10: Plant response rating, Rice (rice; [11])
70: Barnyardgrass plant response rating (barnyardgrass; [6]) | Plant response rating, Sedge, Umbrella (umbrella sedge; [10]) | Plant response rating, Wheat (wheat; [9])
30: Corn plant response rating (corn; [6]) | Corn plant response rating (corn; [8])
